# Literature values as cited in patent US20230372346A1, “TREATMENT REGIMENS FOR EXON-20 INSERTION MUTANT EGFR CANCERS” (CULLINAN PEARL CORP., priority 2020, published 2023).
# Settings: human, in vivo; cited from earlier work
compound,measurement,value
"C=CC(=O)Nc1cc(Nc2ncc(C(=O)OC(C)C)c(-c3cn(C)c4ccccc34)n2)c(OC)cc1N(C)CCN(C)C [TAK-788, mobocertinib]",toxicity in the lowest-dose cohort where stable diseases or partial responses were observed,presented both grade 3 or above TRAEs and dose-limiting toxicities
